Experimental findings from patent US11008572B2, “Methods and compositions for modulating splicing” (SKYHAWK THERAPEUTICS, INC., priority 2017, dated 2021) are described below.

For assay [1], the system named is A-673 cells. Kind of assay: Cell viability, crystal violet staining. The format is cell-based. As to conditions: Homo sapiens, A673, cell viability. In a few lines:
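Readout is absorbance at 570 nm of crystal violet, taken up in 0.1 M sodium citrate in 50% ethanol after staining with 0.5% dye in 25% methanol. Plates held 5×10^3 cells per well, and compounds were added one day after seeding for 72 hours. Data are relative to vehicle, mean±SE.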

The subject of assay [2] is FOXM1^A2 mRNA and FOXM1^BC mRNA. Kind of assay: Splicing assay (FOXM1), qPCR of isoform mRNAs. The format is cell-based. In a few lines:
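Cells (20,000/well) treated at plating with compound, 8-point 4-fold series from 10 μM, 0.2% DMSO, 24 h at 37° C. Isoform mRNAs quantified by RT-qPCR against plasmid standards, normalized to PPIA and DMSO control; isoform ratio computed per concentration.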
(In general: Quantitative PCR measures a nucleic acid by following its amplification.)

[3] abbreviates: read-out: A-673 IC50 (nM), Cell viability.
Where [4] appears, read: 24 h, FoxM1 BC mRNA decrease (exon included), 0.1-1000 nM, 24 hours, read-out: Splice IC50 (nM), FoxM1 BC mRNA decrease (exon included).
Where [5] appears, read: FoxM1 A mRNA increase (exon excluded), 0.1-1000 nM, 24 hours, read-out: Splice EC50 (nM), FoxM1 A mRNA increase (exon excluded).
Setting [6] is: read-out: A-673 IC50 (nM) Cell viability.
The mark [7] stands for this setting: FoxM1 BC mRNA decrease (exon included), read-out: Splice IC50 (nM) FoxM1 BC mRNA decrease (exon included).
[8] abbreviates: read-out: Splice EC50 (nM) FoxM1 A mRNA increase (exon excluded).

Like-named read-outs stand apart in the source and are kept apart here. Bounds are passed on as bounds.

Turning to `Cc1cc(-c2ccc(-c3ccc(O[C@@H]4C[C@H]5CC[C@@H](C4)N5)nn3)c(O)c2)on1` [compound 256, 2-(6-(((1R,3s,5S)-8-azabicyclo[3.2.1]octan-3-yl)oxy)pyridazin-3-yl)-5-(3-methylisoxazol-5-yl)phenol], the IC50 in assay [1] (setting [3]) and in assay [2] (setting [4]) was greater than 1000 nM in each case. The 50% effective concentration (EC50) (in general, the concentration giving half of the maximal effect) in assay [2] (setting [5]) is greater than 1000 nM.
Turning to `Cc1ccc(-c2ccc(-c3ccc(N(C)[C@@H]4C[C@H]5CC[C@@H](C4)N5)nn3)c(O)c2)nn1` [compound 239, 2-(6-(((1R,3s,5S)-8-azabicyclo[3.2.1]octan-3-yl)(methyl)amino)pyridazin-3-yl)-5-(6-methylpyridazin-3-yl)phenol], the IC50 in assay [1] (setting [3]) is 251 to 500 nM; in assay [2] (setting [4]), less than 10 nM. Further, the concentration giving a half-maximal response (EC50) in assay [2] (setting [5]) is less than 10 nM.
As to `CN(c1ccc(-c2ccc(-c3cn[nH]c3)cc2O)nn1)[C@@H]1[C@@H]2CC[C@H]1CNC2` [compound 144, 2-(6-(((1R,5S,8s)-3-azabicyclo[3.2.1]octan-8-yl)(methyl)amino)pyridazin-3-yl)-5-(1H-pyrazol-4-yl)phenol], the IC50 was 501 to 1000 nM in assay [1] (setting [6]) and greater than 1000 nM in assay [2] (setting [7]). Also, the half-maximal effective concentration (EC50) in assay [2] (setting [8]) was greater than 1000 nM.
Regarding `CC1(C)CC(N(c2ccc(-c3ccc(-c4cn[nH]c4)cc3O)nn2)C2CC2)CC(C)(C)N1` [compound 129, 2-(6-(cyclopropyl(2,2,6,6-tetramethylpiperidin-4-yl)amino)pyridazin-3-yl)-5-(1H-pyrazol-4-yl)phenol], the IC50 in assay [1] (setting [6]) is 251 to 500 nM; in assay [2] (24 h, LP-LoVo cells, 24 hours, table does not say EC50 or IC50, read-out: FOXM1), 1 to 10 nM; in assay [2] (24 h, MDA-MB-231-luc cells, 24 hours, table does not say EC50 or IC50, read-out: FOXM1) it was less than 1 nM; in assay [2] (Homo sapiens, A673, 24 h, A-673 cells, 24 hours, table does not say EC50 or IC50, read-out: FOXM1), less than 1 nM; in assay [2] (Homo sapiens, A-375, 24 h, A-375 cells, 24 hours, table does not say EC50 or IC50, read-out: FOXM1), less than 1 nM; in assay [2] (Homo sapiens, MDA-MB-157, 24 h, MDA-MB-157 cells, 24 hours, table does not say EC50 or IC50, read-out: FOXM1), less than 1 nM. For the same molecule, the IC50 in assay [2] (Homo sapiens, SK-OV-3, 24 h, SKOV3 cells, 24 hours, table does not say EC50 or IC50, read-out: FOXM1) was 1 to 10 nM; in assay [2] (Homo sapiens, Z-138, 24 h, Z-138 cells, 24 hours, table does not say EC50 or IC50, read-out: FOXM1), less than 1 nM.
Turning to `C[C@]12CC[C@](C)(C[C@H](Oc3ccc(-c4ccc(-c5cn[nH]c5)cc4O)nn3)C1)N2` [compound 153, 2-(6-(((1R,3r,5S)-1,5-dimethyl-8-azabicyclo[3.2.1]octan-3-yl)oxy)pyridazin-3-yl)-5-(1H-pyrazol-4-yl)phenol], the IC50 in assay [1] (setting [6]) and in assay [2] (setting [7]) was greater than 1000 nM each time. Further, the EC50 in assay [2] (setting [8]) was greater than 1000 nM.
As for `Oc1cc(-c2cn[nH]c2)ccc1-c1ccc(O[C@@H]2C[C@H]3COC[C@@H](C2)N3)nn1` [compound 159, 2-(6-(((1R,5S,7r)-3-oxa-9-azabicyclo[3.3.1]nonan-7-yl)oxy)pyridazin-3-yl)-5-(1H-pyrazol-4-yl)phenol], the IC50 in assay [1] (setting [6]) and in assay [2] (setting [7]) was 501 to 1000 nM throughout. For the same molecule, the EC50 in assay [2] (setting [8]) lay within 251 to 500 nM.
In the case of `CN(c1ccc(-c2ccc(-n3ccnn3)cc2O)nn1)[C@@H]1C[C@H]2CC[C@@H](C1)N2` [compound 224, 2-(6-(((1R,3s,5S)-8-azabicyclo[3.2.1]octan-3-yl)(methyl)amino)pyridazin-3-yl)-5-(1H-1,2,3-triazol-1-yl)phenol], the IC50 in assay [1] (setting [3]) was 101 to 250 nM; in assay [2] (setting [4]) it was 10 to 100 nM. In addition, in assay [2] (setting [5]), the half-maximal effective concentration (EC50) was less than 10 nM.
With `Oc1cc(-c2cn[nH]c2)ccc1-c1ccc(O[C@H]2C[C@H]3COC[C@@H](C2)N3)nn1` [compound 158, 2-(6-(((1R,5S,7s)-3-oxa-9-azabicyclo[3.3.1]nonan-7-yl)oxy)pyridazin-3-yl)-5-(1H-pyrazol-4-yl)phenol], the IC50 in assay [1] (setting [6]) and in assay [2] (setting [7]) was greater than 1000 nM throughout. The EC50 in assay [2] (setting [8]) is greater than 1000 nM.
Consider `CN(c1ccc(-c2ccc(-c3cnn(C(F)(F)F)c3)cc2O)nn1)[C@H]1C[C@]2(C)CC[C@](C)(C1)N2` [compound 186, 2-(6-(((1R,3s,5S)-1,5-dimethyl-8-azabicyclo[3.2.1]octan-3-yl)(methyl)amino)pyridazin-3-yl)-5-(1-(trifluoromethyl)-1H-pyrazol-4-yl)phenol], for which the IC50 in assay [1] (setting [6]) is greater than 1000 nM; in assay [2] (setting [7]) it was 101 to 250 nM. In addition, the EC50 in assay [2] (setting [8]) fell in the range of 10 to 100 nM.
On to `Oc1cc(-c2cn[nH]c2)ccc1-c1ccc(O[C@H]2CC3CCC[C@@H](C2)N3)nn1` [compound 277, 2-(6-(((1R,3r,5S)-9-azabicyclo[3.3.1]nonan-3-yl)oxy)pyridazin-3-yl)-5-(1H-pyrazol-4-yl)phenol], for which the IC50 in assay [1] (setting [3]) and in assay [2] (setting [4]) was greater than 1000 nM throughout. Moreover, in assay [2] (setting [5]), the EC50 is greater than 1000 nM.
For `CN(c1ccc(-c2ccc(-c3c[nH]nn3)cc2O)nn1)[C@@H]1C[C@H]2CC[C@@H](C1)N2` [compound 226, 2-(6-(((1R,3s,5S)-8-azabicyclo[3.2.1]octan-3-yl)(methyl)amino)pyridazin-3-yl)-5-(1H-1,2,3-triazol-4-yl)phenol], the IC50 was in the range of 101 to 250 nM in assay [1] (setting [3]) and 10 to 100 nM in assay [2] (setting [4]). Moreover, in assay [2] (setting [5]), the EC50 was 10 to 100 nM.
For the molecule `COCCN(c1ccc(-c2ccc(-c3cn[nH]c3)cc2O)nn1)C1CC(C)(C)NC(C)(C)C1` [compound 133, 2-(6-((2-methoxyethyl)(2,2,6,6-tetramethylpiperidin-4-yl)amino)pyridazin-3-yl)-5-(1H-pyrazol-4-yl)phenol], the IC50 in assay [1] (setting [6]) and in assay [2] (setting [7]) was greater than 1000 nM throughout. Moreover, the half-maximal effective concentration (EC50) in assay [2] (setting [8]) fell in the range of 501 to 1000 nM.
For the molecule `CN(c1ccc(-c2ccc(-c3nnn[nH]3)cc2O)nn1)[C@@H]1C[C@H]2CC[C@@H](C1)N2` [compound 227, 2-(6-(((1R,3s,5S)-8-azabicyclo[3.2.1]octan-3-yl)(methyl)amino)pyridazin-3-yl)-5-(1H-tetrazol-5-yl)phenol], the IC50 in assay [1] (setting [3]) and in assay [2] (setting [4]) was greater than 1000 nM each time. For the same molecule, the EC50 in assay [2] (setting [5]) was greater than 1000 nM.
In the case of `Oc1cc(-c2cn[nH]c2)ccc1-c1ccc(O[C@H]2C[C@H]3CC[C@@H](C2)N3)nn1` [compound 141, 2-(6-(((1R,3r,5S)-8-azabicyclo[3.2.1]octan-3-yl)oxy)pyridazin-3-yl)-5-(1H-pyrazol-4-yl)phenol], the IC50 in assay [1] (setting [6]) and in assay [2] (setting [7]) was greater than 1000 nM in each case. Further, the 50% effective concentration (EC50) in assay [2] (setting [8]) was greater than 1000 nM.
Turning to `Cc1cc(-c2ccc(-c3ccc(N(C)[C@@H]4C[C@H]5CC[C@@H](C4)N5)nn3)c(O)c2)on1` [compound 229, 2-(6-(((1R,3s,5S)-8-azabicyclo[3.2.1]octan-3-yl)(methyl)amino)pyridazin-3-yl)-5-(3-methylisoxazol-5-yl)phenol], the IC50 in assay [1] (setting [3]) and in assay [2] (setting [4]) was greater than 1000 nM in each case. Further, in assay [2] (setting [5]), the half-maximal effective concentration (EC50) is greater than 1000 nM.
Turning to `CN(c1ccc(-c2ccc(-n3ccnn3)cc2O)nn1)[C@@H]1C[C@H]2CCC[C@@H](C1)N2` [compound 279, 2-(6-(((1R,3s,5S)-9-azabicyclo[3.3.1]nonan-3-yl)(methyl)amino)pyridazin-3-yl)-5-(1H-1,2,3-triazol-1-yl)phenol], the IC50 in assay [1] (setting [3]) is 10 to 100 nM; in assay [2] (setting [4]), less than 10 nM. Further, in assay [2] (setting [5]), the concentration giving a half-maximal response (EC50) is less than 10 nM.
Regarding `Cc1nnn(-c2ccc(-c3ccc(N(C)[C@@H]4C[C@H]5CC[C@@H](C4)N5)nn3)c(O)c2)n1` [compound 234, 2-(6-(((1R,3s,5S)-8-azabicyclo[3.2.1]octan-3-yl)(methyl)amino)pyridazin-3-yl)-5-(5-methyl-2H-tetrazol-2-yl)phenol], the IC50 in assay [1] (setting [3]) and in assay [2] (setting [4]) was 10 to 100 nM each time. Further, the EC50 in assay [2] (setting [5]) fell in the range of 10 to 100 nM.
In the case of `CNC(=O)c1cc2cc(-c3ccc(N(C)[C@H]4C[C@]5(C)CC[C@](C)(C4)N5)nn3)c(O)cc2o1` [compound 192, 5-(6-(((1R,3s,5S)-1,5-dimethyl-8-azabicyclo[3.2.1]octan-3-yl)(methyl)amino)pyridazin-3-yl)-6-hydroxy-N-methylbenzofuran-2-carboxamide], the IC50 in assay [1] (setting [6]) is 10 to 100 nM; in assay [2] (setting [7]), less than 10 nM. Besides, the concentration for a half-maximal effect (EC50) in assay [2] (setting [8]) is less than 10 nM.
As for `CN(c1ccc(-c2ccc(-c3cnn(C)c(=O)c3)cc2O)nn1)[C@H]1C[C@]2(C)CC[C@](C)(C1)N2` [compound 170, 5-(4-(6-(((1R,3s,5S)-1,5-dimethyl-8-azabicyclo[3.2.1]octan-3-yl)(methyl)amino)pyridazin-3-yl)-3-hydroxyphenyl)-2-methylpyridazin-3(2H)-one], the IC50 in assay [1] (setting [6]) and in assay [2] (setting [7]) was less than 10 nM each time. In addition, in assay [2] (setting [8]), the EC50 is less than 10 nM.
As for `CN(c1ccc(-c2ccc(-c3cn[nH]c3)cc2O)nn1)[C@H]1C[C@H]2COC[C@@H](C1)N2` [compound 155, 2-(6-(((1R,5S,7s)-3-oxa-9-azabicyclo[3.3.1]nonan-7-yl)(methyl)amino)pyridazin-3-yl)-5-(1H-pyrazol-4-yl)phenol], the IC50 in assay [1] (setting [6]) and in assay [2] (setting [7]) was greater than 1000 nM each time. Further, the half-maximal effective concentration (EC50) in assay [2] (setting [8]) was greater than 1000 nM.
Turning to `Cc1nnc(-c2ccc(-c3ccc(N(C)[C@@H]4C[C@H]5CC[C@@H](C4)N5)nn3)c(O)c2)o1` [compound 219, 2-(6-(((1R,3s,5S)-8-azabicyclo[3.2.1]octan-3-yl)(methyl)amino)pyridazin-3-yl)-5-(5-methyl-1,3,4-oxadiazol-2-yl)phenol], the IC50 in assay [1] (setting [3]) was greater than 1000 nM; in assay [2] (setting [4]), 10 to 100 nM. Besides, the EC50 in assay [2] (setting [5]) lay within 10 to 100 nM.
